Consider six compounds from patent US11013696B2, “Lipids and lipid compositions for the delivery of active agents” (Novartis AG, priority 2013, dated 2021).

The nature of data set [1]: Particle size and PDI of lipid nanoparticles by dynamic light scattering (Malvern Zetasizer). The class given is physicochemical. From the text: The lipid nanoparticles have a size of about 1 to about 2,500 nm, about 10 to about 1,500 nm, about 20 to about 1,000 nm, in a sub-embodiment about 50 to about 600 nm, in a sub-embodiment about 50 to about 400 nm, in a sub-embodiment about 50 to about 250 nm, and in a sub-embodiment about 50 to about 150 nm. Unless indicated otherwise, all sizes referred to herein are the average sizes (diameters) of the fully formed nanoparticle, as measured by dynamic light scattering on a Malvern Zetasizer. The nanoparticle sample is diluted in phosphate buffered saline (PBS) so that the count rate is approximately 200-400 kcts. The data is presented as a weighted average of the intensity measure.
Unless indicated otherwise, all PDIs referred to herein are the PDI of the fully formed nanoparticle, as measured by dynamic light scattering on a Malvern Zetasizer. The nanoparticle sample was diluted in phosphate buffered saline (PBS) so that the count rate was approximately 200-400 kcts. The data is presented in Table 3 as a weighted average of the intensity measure.
Unless indicated otherwise, all particle size measurements referred to in Table 3 are the Z-average particle size of the fully formed nanoparticle, as measured by dynamic light scattering on a Malvern Zetasizer. The nanoparticle sample was diluted in phosphate buffered saline (PBS) so that the count rate is approximately 200-400 kcts.

Data set [2] in a line: siRNA encapsulation in lipid nanoparticles (SYBR Gold). The format is physicochemical. To be noted: for % Encap.: FVII siRNA; for % encapsulation siRNA FVII: Table 2, FVII siRNA in LNP with the cationic lipid. In short, it runs like this:
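SYBR Gold fluorescence (ex 485/em 530 nm) of LNPs made by impinging-jet mixing of ethanolic lipids (cationic, cholesterol, optional DSPC, PEG/stealth lipid) with siRNA in citrate pH 4-6, siRNA:lipid ~0.05 wt/wt. Samples with and without Triton X-100 gave free and total siRNA for encapsulation efficiency.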

Take `CCCCCCCCCCCCC(CCOC(=O)CCCCC(COC(=O)CCCCCCC)COC(=O)CCCCCCC)OC(=O)OCCCN(CC)CC` (stereo not drawn) [Example 1, 2-(10-dodecyl-3-ethyl-8,14-dioxo-7,9,13-trioxa-3-azaoctadecan-18-yl)propane-1,3-diyl dioctanoate]: the PDI in data set [1] (FLuc mRNA LNP) came to 0.100; in data set [1] (Gluc mRNA LNP), 0.093; in data set [1] (hFIX mRNA LNP) it was 0.082; in data set [1] (hLep plasmid LNP), 0.138; in data set [1] (hLeptin mRNA LNP), 0.071; in data set [1] (mEPO mRNA LNP) it was 0.073. Besides, the PDI in data set [1] (pDNA LNP) turned out to be 0.135. Moreover, the Size in data set [1] (FLuc mRNA LNP) is on record as 108.8 nm; in data set [1] (Gluc mRNA LNP), 84.7 nm; in data set [1] (hFIX mRNA LNP) it was 95.5 nm; in data set [1] (hLep plasmid LNP), 109.8 nm; in data set [1] (hLeptin mRNA LNP), 128.1 nm; in data set [1] (mEPO mRNA LNP), 104.1 nm. This compound returned a Size in data set [1] (pDNA LNP) of 110 nm.
With `CCCCCCCCCCCCC(CCOC(=O)CCCCC(OCCCCCCCC)OCCCCCCCC)OC(=O)OCCCN(CC)CC` (stereo not drawn) [Example 16, 3-(((3-(diethylamino)propoxy)carbonyl)oxy)pentadecyl 6,6-bis(octyloxy)hexanoate], the “% Encap.” value in data set [2] came to 88.9%. The “% encapsulation siRNA FVII” value in data set [2] is recorded as 88.9%. For the same compound, the PDI in data set [1] (FLuc mRNA LNP) amounted to 0.145; in data set [1] (FVII siRNA LNP), 0.075; in data set [1] (Gluc mRNA LNP), 0.145; in data set [1] (hFIX mRNA LNP), 0.141; in data set [1] (hLep plasmid LNP) it was 0.155; in data set [1] (hLeptin mRNA LNP) it was 0.103. Also, the figures for the PDI in data set [1] (mEPO mRNA LNP) and in data set [1] (pDNA LNP) were 0.112 and 0.128, respectively. Also, the Size in data set [1] (FLuc mRNA LNP) was 106.7 nm; in data set [1] (FVII siRNA LNP) it was 95.7 nm; in data set [1] (Gluc mRNA LNP), 106.7 nm; in data set [1] (hFIX mRNA LNP), 102.6 nm; in data set [1] (hLep plasmid LNP), 102.6 nm; in data set [1] (hLeptin mRNA LNP), 122.6 nm. Besides, the Size in data set [1] (mEPO mRNA LNP) was 83.2 nm; in data set [1] (pDNA LNP), 101.6 nm.
Take `CCCCCCCCCCCCC(CCOC(=O)CCCCC(OCC(CC)CCCC)OCC(CC)CCCC)OC(=O)OCCCN(CC)CC` (stereo not drawn) [Example 18, 3-(((3-(diethylamino)propoxy)carbonyl)oxy)pentadecyl 6,6-bis((2-ethylhexyl)oxy)hexanoate]: in data set [2], the “% encapsulation siRNA FVII” value was 91.2%.
Turning to `CCCCCCCCCC(=O)OCCC(CC(CCCCCCCC)CCCCCCCC)OC(=O)OCCCN(C)C` (stereo not drawn) [Example 70, 3-(((3-(dimethylamino)propoxy)carbonyl)oxy)-5-octyltridecyl decanoate], in data set [2], the “% encapsulation siRNA FVII” value came to 80.0%.
Take `CCCCC/C=C\C/C=C\CCCCCCCC(=O)OCC(COC(=O)CCCCCCC/C=C\C/C=C\CCCCC)OC(=O)CCC(CCCCCCCCCCCC)OC(=O)OCCCN(C)C` (stereo not drawn) [Example 80, (9Z,9′Z,12Z,12′Z)-2-((4-(((3-(dimethylamino)propoxy)carbonyl)oxy)hexadecanoyl)oxy)propane-1,3-diyl bis(octadeca-9,12-dienoate)]: in data set [2], the “% Encap.” value came out at 85.2% and the “% encapsulation siRNA FVII” value was 85.2%. In data set [1] (FLuc mRNA LNP), this compound displayed a PDI of 0.085 and a Size of 193.5 nm. In data set [1] (FVII siRNA LNP), this compound registered a PDI of 0.051 and a Size of 97.3 nm. In data set [1] (mEPO mRNA LNP), this compound returned a PDI of 0.083 and a Size of 166.0 nm.
As for `CCCCC/C=C\C/C=C\CCCCCCCCC(CCC(=O)OC(COC(=O)CCCCCCC)COC(=O)CCCCCCC)OC(=O)OCCCN(C)C` (stereo not drawn) [Example 94, 2-(((13Z,16Z)-4-(((3-(dimethylamino)propoxy)carbonyl)oxy)docosa-13,16-dienoyl)oxy)propane-1,3-diyl dioctanoate], in data set [2], the “% Encap.” value was determined as 74.8%. Further, in data set [2], the “% encapsulation siRNA FVII” value came to 74.8%. Further, the PDI in data set [1] (FLuc mRNA LNP) is on record as 0.093; in data set [1] (FVII siRNA LNP), 0.073; in data set [1] (Gluc mRNA LNP), 0.113; in data set [1] (hFIX mRNA LNP), 0.079; in data set [1] (hLep plasmid LNP), 0.153; in data set [1] (hLeptin mRNA LNP), 0.101. Also, the PDI came out at 0.099 in data set [1] (mEPO mRNA LNP) and 0.152 in data set [1] (pDNA LNP). Besides, the Size in data set [1] (FLuc mRNA LNP) stood at 129.2 nm; in data set [1] (FVII siRNA LNP), 122.6 nm; in data set [1] (Gluc mRNA LNP) it was 76.9 nm; in data set [1] (hFIX mRNA LNP) it was 148.3 nm; in data set [1] (hLep plasmid LNP) it was 109.8 nm; in data set [1] (hLeptin mRNA LNP) it was 119.1 nm. For the same compound, the Size in data set [1] (mEPO mRNA LNP) is 108.5 nm; in data set [1] (pDNA LNP), 123.5 nm.
